pIC50: −log10 of the molar value.
Legend:
[1] = test system: HCT-116; experiment: Cytotoxicity against human HCT-116 cells assessed as inhibition of cell growth by MTT assay; type: functional, cell-based
[2] = test system: NCI-H1299; experiment: Cytotoxicity against human NCI-H1299 cells assessed as inhibition of cell growth by MTT assay; type: functional, cell-based
[3] = test system: SMMC-7721; experiment: Cytotoxicity against human SMMC-7721 cells assessed as inhibition of cell growth by MTT assay; type: functional, cell-based
[4] = test system: HepG2; experiment: Cytotoxicity against human HepG2 cells assessed as inhibition of cell growth by MTT assay; type: functional, cell-based
[5] = test system: KB-V1; experiment: Cytotoxicity against human KB-V1 cells assessed as inhibition of cell growth by MTT assay; type: functional, cell-based
[6] = test system: MCF7; experiment: Cytotoxicity against human MCF7 cells assessed as inhibition of cell growth by MTT assay; type: functional, cell-based
[7] = test system: 518A2; experiment: Cytotoxicity against human 518A2 cells assessed as inhibition of cell growth by MTT assay; type: functional, cell-based
[8] = test system: DLD-1; experiment: Potency index, ratio of vorinostat IC50 to test compound IC50 for cytotoxicity against human DLD-1 cells; type: functional
[9] = test system: HT-29; experiment: Potency index, ratio of vorinostat IC50 to test compound IC50 for cytotoxicity against human HT-29 cells; type: functional
[10] = test system: KB-V1; experiment: Potency index, ratio of vorinostat IC50 to test compound IC50 for cytotoxicity against human KB-V1 cells; type: functional
[11] = test system: 518A2; experiment: Potency index, ratio of vorinostat IC50 to test compound IC50 for cytotoxicity against human 518A2 cells; type: functional
[12] = test system: HT-29; experiment: Cytotoxicity against human HT-29 cells assessed as inhibition of cell growth by MTT assay; type: functional, cell-based
[13] = test system: EA.hy 926; experiment: Potency index, ratio of vorinostat IC50 to test compound IC50 for cytotoxicity against human EA.hy 926 cells; type: functional
[14] = Cytotoxicity against human HDFa cells assessed as inhibition of cell proliferation by MTT assay; type: toxicity, cell-based
[15] = Selectivity index, ratio of IC50 for cytotoxicity against human HDFa cells to IC50 for cytotoxicity against human 518A2 cells; type: toxicity, cell-based; settings: HDFa cells and 518A2 cells, pooled result: one value given for 6 cell lines, strains, targets or settings, read-out: Ratio IC50
[16] = test system: DLD-1; experiment: Cytotoxicity against human DLD-1 cells assessed as inhibition of cell growth by SRB assay; type: functional, cell-based
[17] = test system: MCF7; experiment: Potency index, ratio of vorinostat IC50 to test compound IC50 for cytotoxicity against human MCF7 cells; type: functional
[18] = test system: Kasumi 1; experiment: Cytotoxicity against human Kasumi 1 cells assessed as inhibition of cell growth by MTT assay; type: functional, cell-based
[19] = test system: NB-4; experiment: Cytotoxicity against human NB-4 cells assessed as inhibition of cell growth by MTT assay; type: functional, cell-based
[20] = test system: ASPC1; experiment: Cytotoxicity against human ASPC1 cells assessed as inhibition of cell growth by MTT assay; type: functional, cell-based
[21] = biological target: Histone deacetylase 1 (Homo sapiens, UniProt Q13547); experiment: Inhibition of HDAC1 (unknown origin)
[22] = test system: A549; experiment: Cytotoxicity against human A549 cells assessed as inhibition of cell growth by SRB assay; type: functional
[23] = biological target: Histone deacetylase 2 (Homo sapiens, UniProt Q92769); experiment: Inhibition of HDAC2 (unknown origin)
[24] = test system: ASPC1; experiment: Cytotoxicity against human ASPC1 cells assessed as inhibition of cell growth by SRB assay; type: functional, cell-based
[25] = test system: HCT-116; experiment: Antitumor activity against human HCT-116 cells xenografted in mouse assessed as tumor growth inhibition at 15 mg/kg, iv relative to control; type: functional; settings: read-out: TGI
[26] = biological target: T1, Protein deacetylase HDAC6 (Homo sapiens, UniProt Q9UBN7); experiment: Inhibition of HDAC6 (unknown origin)
T1 sequence (Q9UBN7 whole entry): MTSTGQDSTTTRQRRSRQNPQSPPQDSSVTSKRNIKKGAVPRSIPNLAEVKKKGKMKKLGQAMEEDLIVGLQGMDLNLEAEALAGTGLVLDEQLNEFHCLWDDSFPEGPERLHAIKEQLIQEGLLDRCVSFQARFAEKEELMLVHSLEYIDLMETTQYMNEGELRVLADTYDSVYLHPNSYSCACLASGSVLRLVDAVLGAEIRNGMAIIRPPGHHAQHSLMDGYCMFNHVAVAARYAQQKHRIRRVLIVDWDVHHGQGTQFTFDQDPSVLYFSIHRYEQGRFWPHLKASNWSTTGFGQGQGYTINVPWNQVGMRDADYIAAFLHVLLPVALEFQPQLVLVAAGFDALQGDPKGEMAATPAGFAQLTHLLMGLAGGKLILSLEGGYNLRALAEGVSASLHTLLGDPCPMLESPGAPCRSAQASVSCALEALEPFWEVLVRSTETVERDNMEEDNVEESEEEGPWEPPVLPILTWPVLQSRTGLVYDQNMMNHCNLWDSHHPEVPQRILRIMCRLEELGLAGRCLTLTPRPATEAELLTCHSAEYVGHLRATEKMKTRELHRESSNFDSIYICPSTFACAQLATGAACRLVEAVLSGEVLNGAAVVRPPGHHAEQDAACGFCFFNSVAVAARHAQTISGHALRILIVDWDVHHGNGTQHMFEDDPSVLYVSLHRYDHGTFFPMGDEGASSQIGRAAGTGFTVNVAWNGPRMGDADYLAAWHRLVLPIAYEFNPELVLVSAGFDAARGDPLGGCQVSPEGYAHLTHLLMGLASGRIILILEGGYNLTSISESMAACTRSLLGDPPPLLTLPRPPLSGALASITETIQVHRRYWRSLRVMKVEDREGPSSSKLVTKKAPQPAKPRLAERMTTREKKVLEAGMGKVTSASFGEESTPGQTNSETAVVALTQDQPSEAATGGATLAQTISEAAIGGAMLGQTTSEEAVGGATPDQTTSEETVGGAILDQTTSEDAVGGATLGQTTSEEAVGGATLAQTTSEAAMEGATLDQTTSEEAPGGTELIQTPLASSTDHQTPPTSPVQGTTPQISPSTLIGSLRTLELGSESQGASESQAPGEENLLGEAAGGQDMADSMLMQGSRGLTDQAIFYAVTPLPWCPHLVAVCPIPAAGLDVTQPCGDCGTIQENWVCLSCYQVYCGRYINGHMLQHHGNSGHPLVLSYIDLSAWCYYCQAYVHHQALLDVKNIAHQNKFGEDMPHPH

[27] = test system: MDA-MB-231; experiment: Cytotoxicity against human MDA-MB-231 cells assessed as inhibition of cell growth by SRB assay; type: functional, cell-based
[28] = biological target: Histone deacetylase 3 (Homo sapiens, UniProt O15379); experiment: Inhibition of HDAC3 (unknown origin)
[29] = test system: HCT-116; experiment: Cytotoxicity against human HCT-116 cells assessed as inhibition of cell growth by SRB assay; type: functional, cell-based
[30] = test system: PC-3; experiment: Potency index, ratio of vorinostat IC50 to test compound IC50 for cytotoxicity against human PC-3 cells assessed as inhibition of cell growth by MTT assay; type: functional
[31] = test system: SW-620; experiment: Potency index, ratio of vorinostat IC50 to test compound IC50 for cytotoxicity against human SW620 cells assessed as inhibition of cell growth by MTT assay; type: functional
[32] = test system: PC-3; experiment: Cytotoxicity against human PC-3 cells assessed as inhibition of cell growth by MTT assay; type: functional, cell-based
[33] = test system: ASPC1; experiment: Potency index, ratio of vorinostat IC50 to test compound IC50 for cytotoxicity against human ASPC1 cells assessed as inhibition of cell growth by MTT assay; type: functional
[34] = test system: SW-620; experiment: Cytotoxicity against human SW620 cells assessed as inhibition of cell growth by MTT assay; type: functional, cell-based
[35] = Half life in CD1 mouse at 2 mg/kg, iv; type: ADME, organism-based; settings: in vivo
[36] = Cmax in CD1 mouse at 2 mg/kg, iv; type: ADME, organism-based; parameters: dose 2 mg/kg, route iv; settings: in vivo
[37] = AUCinfinity in CD1 mouse at 2 mg/kg, iv; type: ADME, organism-based; parameters: dose 2 mg/kg, route iv; settings: in vivo
[38] = Clearance in CD1 mouse at 2 mg/kg, iv; type: ADME, organism-based; settings: in vivo
[39] = test system: MCF7; experiment: Cytotoxicity against human MCF7 cells assessed as inhibition of cell growth by MTS assay; type: functional, cell-based
[40] = test system: MDA-MB-231; experiment: Cytotoxicity against human MDA-MB-231 cells assessed as inhibition of cell growth by MTS assay; type: functional, cell-based
[41] = test system: MDA-MB-231; experiment: animal or person; type: functional, Homo sapiens; settings: Mus musculus, route po, read-out: TGI
Description: Antitumor activity against human MDA-MB-231 cells xenografted in mouse assessed as tumor growth inhibition at 25 mg/kg, po relative to control

[42] = test system: T47D; experiment: Cytotoxicity against human T47D cells assessed as inhibition of cell growth by MTS assay; type: functional, cell-based
[43] = test system: SNU-387; experiment: Cytotoxicity against human SNU-387 cells assessed as inhibition of cell growth by SRB assay; type: functional, cell-based
[44] = test system: MV4-11; experiment: Cytotoxicity against human MV4-11 cells assessed as inhibition of cell growth by SRB assay; type: functional, cell-based
[45] = test system: SK-HEP1; experiment: Cytotoxicity against human SK-HEP1 cells assessed as inhibition of cell growth by SRB assay; type: functional, cell-based
[46] = test system: Ramos; experiment: Cytotoxicity against human Ramos cells assessed as inhibition of cell growth by SRB assay; type: functional, cell-based
[47] = Toxicity in BALB/c mouse assessed as maximum tolerated dose; settings: in vivo
[48] = test system: Raji; experiment: Cytotoxicity against human Raji cells assessed as inhibition of cell growth by SRB assay; type: functional, cell-based
[49] = test system: PC-3; experiment: Cytotoxicity against human PC-3 cells assessed as inhibition of cell growth by SRB assay; type: functional, cell-based
[50] = biological target: Histone deacetylase; experiment: Inhibition of HDAC (unknown origin); type: protein assay, Homo sapiens
[51] = test system: MCF7; experiment: Cytotoxicity against human MCF7 cells assessed as inhibition of cell growth by SRB assay; type: functional, cell-based
[52] = test system: HepG2; experiment: Cytotoxicity against human HepG2 cells assessed as inhibition of cell growth by SRB assay; type: functional, cell-based
[53] = test system: SU-DHL-6; experiment: Cytotoxicity against human SU-DHL-6 cells assessed as inhibition of cell growth by SRB assay; type: functional, cell-based
[54] = test system: K562; experiment: Cytotoxicity against human K562 cells assessed as inhibition of cell growth by SRB assay; type: functional, cell-based
[55] = test system: MOLT-4; experiment: Cytotoxicity against human MOLT-4 cells assessed as inhibition of cell growth by SRB assay; type: functional, cell-based
[56] = Oral bioavailability in BALB/c mouse at 200 mg/kg; type: ADME, organism-based; settings: in vivo
[57] = test system: Huh-7; experiment: Cytotoxicity against human Huh-7 cells assessed as inhibition of cell growth by SRB assay; type: functional, cell-based
[58] = test system: SNU-398; experiment: Cytotoxicity against human SNU-398 cells assessed as inhibition of cell growth by SRB assay; type: functional, cell-based
[59] = test system: PLC-PRF-5; experiment: Cytotoxicity against human PLC-PRF-5 cells assessed as inhibition of cell growth by SRB assay; type: functional, cell-based

Sequence of Histone deacetylase 2 (Q92769 whole entry): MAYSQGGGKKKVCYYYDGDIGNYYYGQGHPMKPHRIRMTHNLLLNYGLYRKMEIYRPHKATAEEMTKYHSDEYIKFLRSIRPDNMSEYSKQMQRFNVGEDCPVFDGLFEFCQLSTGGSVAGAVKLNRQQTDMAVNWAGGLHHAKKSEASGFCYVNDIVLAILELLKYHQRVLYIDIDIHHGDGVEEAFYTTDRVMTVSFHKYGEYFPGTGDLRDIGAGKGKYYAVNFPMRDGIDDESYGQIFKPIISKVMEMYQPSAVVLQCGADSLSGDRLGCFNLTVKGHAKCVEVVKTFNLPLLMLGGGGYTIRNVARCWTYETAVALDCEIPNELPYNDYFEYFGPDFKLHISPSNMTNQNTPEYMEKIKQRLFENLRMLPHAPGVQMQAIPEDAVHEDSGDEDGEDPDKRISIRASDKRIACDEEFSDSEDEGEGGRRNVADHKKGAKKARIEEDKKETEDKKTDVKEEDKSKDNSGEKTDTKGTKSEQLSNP
Sequence of Histone deacetylase 1 (Q13547 whole entry): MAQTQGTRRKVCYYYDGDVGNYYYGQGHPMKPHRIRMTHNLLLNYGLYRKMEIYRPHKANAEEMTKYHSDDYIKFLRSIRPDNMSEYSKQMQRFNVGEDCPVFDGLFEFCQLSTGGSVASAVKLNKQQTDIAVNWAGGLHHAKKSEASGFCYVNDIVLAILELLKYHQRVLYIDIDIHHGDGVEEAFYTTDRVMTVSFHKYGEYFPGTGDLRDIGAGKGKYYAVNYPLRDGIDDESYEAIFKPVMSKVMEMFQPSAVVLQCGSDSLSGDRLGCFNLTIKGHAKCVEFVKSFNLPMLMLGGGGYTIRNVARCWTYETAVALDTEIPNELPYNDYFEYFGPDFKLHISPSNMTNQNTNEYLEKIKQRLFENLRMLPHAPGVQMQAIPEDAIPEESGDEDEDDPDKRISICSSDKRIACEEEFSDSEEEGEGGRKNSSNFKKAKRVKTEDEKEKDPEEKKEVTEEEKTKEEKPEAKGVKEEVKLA
Sequence of Histone deacetylase 3 (O15379 whole entry): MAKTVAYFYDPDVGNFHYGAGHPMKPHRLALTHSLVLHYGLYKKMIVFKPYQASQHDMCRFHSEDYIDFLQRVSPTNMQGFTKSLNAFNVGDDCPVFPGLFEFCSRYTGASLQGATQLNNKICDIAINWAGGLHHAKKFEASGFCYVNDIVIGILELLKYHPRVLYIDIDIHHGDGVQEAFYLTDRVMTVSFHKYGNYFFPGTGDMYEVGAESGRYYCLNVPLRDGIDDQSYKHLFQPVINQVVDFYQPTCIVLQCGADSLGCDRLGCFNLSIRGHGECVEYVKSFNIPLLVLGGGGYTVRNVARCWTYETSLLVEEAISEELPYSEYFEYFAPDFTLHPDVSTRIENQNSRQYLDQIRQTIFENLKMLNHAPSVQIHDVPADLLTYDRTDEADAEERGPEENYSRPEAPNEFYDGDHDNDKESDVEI

COc1ccc(-c2nc(C(=O)N(CCN(C)C)Cc3ccc(C(=O)NO)cc3)cc3c2[nH]c2ccccc23)cc1
pIC50 [1]: 5.80 | pIC50 [2]: 5.80 | pIC50 [3]: 5.80 | pIC50 [4]: 5.80

COc1ccc(-c2ocnc2-c2cc(Br)c(OC)c(OC)c2)cc1OCCCC(=O)NO
pIC50 [5]: 7.74 | pIC50 [6]: 7.74 | pIC50 [7]: 7.74 | Ratio IC50 [8]: 1.2 | Ratio IC50 [9]: 1.2 | Ratio IC50 [10]: 1.2 | Ratio IC50 [11]: 1.2 | pIC50 [12]: 7.74 | Ratio IC50 [13]: 1.2 | pIC50 [14]: 4.62 | selectivity ratio [15]: 8.5 | pIC50 [16]: 7.74 | Ratio IC50 [17]: 1.2

Cn1c(CCCCCCC(=O)NO)nc2cc(N(CCCl)CCCl)ccc21 [TINOSTAMUSTINE]
pIC50 [18]: 6.09 | pIC50 [19]: 6.05

Cc1[nH]c2ccccc2c1CCNS(=O)(=O)c1ccc(/C=C/C(=O)NO)cc1
pIC50 [20]: 6.31 | pIC50 [21]: 8.29 | GI50 [22]: 29 nM | pIC50 [23]: 8.29 | pIC50 [24]: 7.54 | inhibition in vivo at 15 mg/kg [25]: 50.7% | pIC50 [26]: 8.29 | pIC50 [27]: 7.54 | pIC50 [28]: 8.29 | pIC50 [29]: 7.54

Cc1ccc2c(c1)/C(=N\O)C(=O)N2CCCC(=O)NO
Ratio IC50 [30]: 4.3 | Ratio IC50 [31]: 4.3 | pIC50 [32]: 6.31 | pIC50 [23]: 6.04 | Ratio IC50 [33]: 4.3 | pIC50 [34]: 6.31

O=C(NO)C(c1ccccc1)c1c(-c2ccc3ccccc3c2)[nH]c2ccccc12 (stereo not given)
half-life [35]: 1.65 h | Cmax [36]: 2350 ng/mL | AUC(0-inf) [37]: 1090 ng·h/mL | clearance [38]: 30.7 mL/min/kg

CCCCc1nc2cc(/C=C/C(=O)NO)ccc2n1CCN(CC)CC [PRACINOSTAT]
pIC50 [39]: 5.27 | pIC50 [40]: 5.27 | inhibition in vivo at 25 mg/kg [41]: 50% | pIC50 [42]: 5.27

CC(C)n1cnc2c(-c3cccc(OCCCCC(=O)NO)c3)nc(N3CCOCC3)nc21
pIC50 [43]: 6.80 | pIC50 [44]: 6.80 | pIC50 [45]: 6.80 | pIC50 [46]: 6.80 | MTD [47]: 200 mg/kg | pIC50 [48]: 6.80 | pIC50 [49]: 6.80 | IC50 [50]: 35 nM | pIC50 [51]: 6.80 | pIC50 [52]: 6.80 | pIC50 [53]: 6.80 | pIC50 [54]: 6.80 | pIC50 [55]: 6.80 | bioavailability [56]: 62% | pIC50 [57]: 6.80 | pIC50 [58]: 6.80 | pIC50 [59]: 6.80
